Read-outs that look alike come from different tables or passages of the source.
Assays:
HepG2 cells = test: cells; assay type: cell-based, human; settings: read-out: Hepatocyte counterscreen
[1] = tested on: P. falciparum TM90C2B (C2B isolates, Y268S cytochrome b); test: Radio-labeled hypoxanthine growth assay, atovaquone-resistant C2B isolates; assay type: cell-based, Plasmodium falciparum
P. berghei liver stages = test: microbe, parasite or virus in culture; assay type: cell-based, Plasmodium berghei; settings: for Selectivity index: IC50 against hepatocytes divided by IC50 for P. berghei liver stage development
[2] = tested on: cytochrome bc1 complex, L275F yeast cytochrome b mutant; assay type: biochemical, Saccharomyces cerevisiae; settings: IC50 against L275F mutant enzyme divided by IC50 of wild-type enzyme
[3] = tested on: cytochrome bc1 complex, M139L yeast cytochrome b mutant; assay type: biochemical, Saccharomyces cerevisiae; settings: IC50 against M139L mutant enzyme divided by IC50 of wild-type enzyme
[4] = molecular target: cytochrome bc1 complex, Y279S yeast cytochrome b mutant (Saccharomyces cerevisiae, UniProt P00163+P08067, Y279S); assay type: biochemical

SMILES: CCCCCCC(C)CC1=C(O)C(=O)c2ccccc2C1=O (stereo not shown) [S-10576, reference compound]
- IC50 (HepG2 cells; MTT, HepG2 cells alone, 48 h): > 66.6 µM

SMILES: Cc1cccc2c1C(=O)C(O)=C(CC(C)CCCCCC(F)(F)F)C2=O (stereo not shown) [NQ3, 2-OH-3-(2-methyl-trifluorooctyl)-8-methyl-naphthoquinone]
- IC50 (HepG2 cells; MTT, HepG2 cells alone, 48 h): > 54.3 µM

SMILES: O=C1C(O)=C([C@H]2CC[C@H](c3ccc(Cl)cc3)CC2)C(=O)c2ccccc21 [Atovaquone, reference compound]
- IC50 [1]: 6.6 to 7.1 µM
- IC50 (HepG2 cells; Homo sapiens, HepG2, 48 h): 38.4 µM
- IC50 (P. berghei liver stages; Plasmodium berghei, HepG2, 48 h, read-out: IC50 against P. berghei): 0.0197 µM

SMILES: CC(CCCCCC(F)(F)F)CC1=C(O)C(=O)c2ccccc2C1=O (stereo not shown) [NQ1, 2-OH-3-(2-methyl-trifluorooctyl)-naphthoquinone]
- Relative efficacy [2]: < 1.0
- Relative efficacy [3]: < 1.0
- IC50 (HepG2 cells; MTT, HepG2 cells alone, 48 h): 6.83 µM
- Selectivity index (P. berghei liver stages): 399

SMILES: CCCCCCC(C)CC1=C(O)C(=O)c2c(C)cccc2C1=O (stereo not shown) [NQ2, 2-OH-3-(2-methyl-octyl)-8-methyl-naphthoquinone]
- IC50 (HepG2 cells; MTT, HepG2 cells alone, 48 h): 2.48 µM
- Relative efficacy ([4]; IC50 against Y279S mutant enzyme divided by IC50 of wild-type enzyme): 0.37
- Extent of inhibition of Y279S enzyme activity ([4]; at 500 nM, biphasic titration): did not reach complete inhibition
- Selectivity index (P. berghei liver stages): 10.1

From PMC5054302 (Molecular and biochemical parasitology, 2011)
